What all share (format): biochemical
For test [1], the target named is T1, human glutathione reductase (hGR) (Homo sapiens, UniProt P00390).
T1 construct: gene GSR; recombinant human glutathione reductase
T1 sequence (P00390 44-522): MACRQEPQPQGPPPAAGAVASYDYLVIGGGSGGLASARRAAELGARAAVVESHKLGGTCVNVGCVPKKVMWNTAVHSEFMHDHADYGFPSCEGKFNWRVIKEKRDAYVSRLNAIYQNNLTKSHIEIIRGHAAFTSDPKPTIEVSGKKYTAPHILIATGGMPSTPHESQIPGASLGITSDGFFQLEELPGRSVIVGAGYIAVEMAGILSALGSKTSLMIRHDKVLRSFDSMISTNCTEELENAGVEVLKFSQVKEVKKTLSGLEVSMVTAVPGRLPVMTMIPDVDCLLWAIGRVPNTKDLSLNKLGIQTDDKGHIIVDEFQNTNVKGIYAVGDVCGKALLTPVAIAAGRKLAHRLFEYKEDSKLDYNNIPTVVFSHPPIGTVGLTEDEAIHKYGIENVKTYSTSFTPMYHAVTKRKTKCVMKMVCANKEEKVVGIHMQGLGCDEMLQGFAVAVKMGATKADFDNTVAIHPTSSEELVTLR
In words: spectrophotometric NADPH consumption ([…] nm) with GSSG; Lineweaver-Burk and non-linear regression.

Test [2] concerns the target T2, trypanothione reductase (TR) (Trypanosoma brucei, UniProt P39051).
T2 construct: gene TPR; recombinant Trypanosoma brucei TR
The test can be described thus: spectrophotometric NADPH consumption ([…] nm) with TS2; Lineweaver-Burk and non-linear regression.

For test [3], the target named is T2, trypanothione reductase (TR). In words: spectrophotometric NADPH consumption ([…] nm) with TS2; % inhibition at […] ([…] TS2). Particulars: read-out: % Inhibition of TR / 44 μM [TS2].

T2 sequence (P39051 whole entry): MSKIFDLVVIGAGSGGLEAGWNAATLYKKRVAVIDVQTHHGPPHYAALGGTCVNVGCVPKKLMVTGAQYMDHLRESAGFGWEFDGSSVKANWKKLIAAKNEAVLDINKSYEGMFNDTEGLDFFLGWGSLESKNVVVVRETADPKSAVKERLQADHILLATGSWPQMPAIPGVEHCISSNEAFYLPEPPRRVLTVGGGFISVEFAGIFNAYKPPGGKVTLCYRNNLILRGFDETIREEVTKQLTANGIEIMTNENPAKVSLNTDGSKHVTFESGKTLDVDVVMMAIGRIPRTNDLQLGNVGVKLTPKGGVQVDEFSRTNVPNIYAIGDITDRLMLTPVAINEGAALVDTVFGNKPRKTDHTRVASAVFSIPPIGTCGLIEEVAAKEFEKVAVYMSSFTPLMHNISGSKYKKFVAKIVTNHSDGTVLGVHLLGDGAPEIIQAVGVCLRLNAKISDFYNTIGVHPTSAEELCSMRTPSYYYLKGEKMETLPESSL

Broadly, the Ki is a dissociation constant, usually derived from enzyme kinetics or from competition with a known ligand. On to `CCCCOC(=O)c1ccc2c(c1)[n+]([O-])c(C(=O)C(C)(C)C)c(C(F)(F)F)[n+]2[O-]` [T-147], for which the Ki was determined as 25 µM in test [1] and 11.4 µM in test [2].

For `CCCCOC(=O)c1ccc2c(c1)[n+]([O-])c(C(=O)c1ccccc1)c(C(F)(F)F)[n+]2[O-]` [T-148], the inhibition at 20 µM in test [3] worked out at 36%.

These data come from paper PMC9655728, “In Vitro and In Silico Analysis of New n-Butyl and Isobutyl Quinoxaline-7-carboxylate 1,4-di-N-oxide Derivatives against Trypanosoma cruzi as Trypanothione Reductase Inhibitors” (International Journal of Molecular Sciences, 2022).
